Bounds are passed on as bounds.

The results in this text go back to publication PMC7094215, “Synthesis and Evaluation of Antileishmanial and Cytotoxic Activity of Benzothiopyrane Derivatives” (Molecules, 2020).

Data set [1] in a line: Cytotoxic activity, MTT method. In kind it is cell-based. Conditions: human, LC50. As for the experimental part: Cytotoxicity of the compounds was evaluated on human monocytes (U-937 ATCC CRL-1593.2) in an exponential growth phase and adjusted at 1 × 10^5 cells/mL in RPMI-1640 enriched with 10% fetal bovine serum (FBS). One hundred microliters of cell suspension were dispensed in each well of a 96-wells microplate, and then 100 μL of 200-50-12.5 and 3.125 μg/mL concentration of each compound or standard drug (amphotericin B) were added dissolved in PBS with 0.5% DMSO. Cell exposed to compounds or standard drugs were incubated 72 h at 37 °C and 5% of CO2. Cytotoxic activity of each compound was determined according to the effect on the cell viability by the MTT microenzymatic method in which 3-(4,5-dimethylthiazol-2-yl)-2,5-diphenyltetrazolium bromide is reduced to a purple formazan product by mitochondrial enzyme succinate dehydrogenase. Thus, 10 μL/well of MTT solution (5 mg/mL) was added to each well of exposed and unexposed cells, and plates were incubated at 37 °C, 5% CO2 during 3 h. The reaction was stopped by adding 100 μL/well of isopropanol with 50% and 10% of SDS (sodium dodecyl sulfate). The concentration of formazan was determined spectrophotometrically at 570 nm (Varioskan, Thermo, Waltham, MA, USA) and intensity of color (absorbance) was registered as O.D. Cells exposed to control drug (amphotericin B) were used as control for toxicity (positive control) while cell incubated in the absence of any compound or drug were used as control for viability (negative control). Non-specific absorbance was corrected by subtracting absorbance (O.D) of the blank. Determinations were done by triplicate in at least two independent experiments.
Cytotoxicity was determined according to viability and mortality percentages obtained for each experimental condition (synthesized compounds, amphotericin B, and culture medium). Results were expressed as the mean lethal concentrations (LC50), the concentration necessary to kill 50% of cells, calculated by the parametric method of linear regression that permits doses-response analysis (Probit analysis).
Initially, viability percentages were calculated by Equation (1), where the O.D of control well, corresponds to 100% of viability:(1) % Viability=(O.D. exposed cells/O.D. unexposed cells)×100
Then, the percentage of cell growth inhibition was calculated using Equation (2):(2) % Inhibition =100−(% Viability)
The toxicity was defined according to LC50 values, using the follow scale: Toxic; LC50 < 100 μM; moderately toxic; LC50 > 100 μM and < 200 μM and potentially nontoxic; LC50 > 200 μM.

In data set [2] the test system is intracellular amastigotes of L. panamensis (MHOM/CO/87/UA140-EGFP strain). Put plainly: In vitro antileishmanial activity on intracellular amastigotes (GFP, flow cytometry). Conditions: for SI (Selectivity Index = LC50/EC50): LC50 U-937 / EC50 L. panamensis amastigotes; for EC50: intracellular amastigotes in U-937 cells, 72 h exposure, mean ± SD, Probit. In kind it is cell-based, Leishmania (V) panamensis. As for the experimental part:
Antileishmanial activity of compounds was determined according to the ability of the compound to reduce the infection by L. panamensis parasites. For this, the antileishmanial activity was tested on intracellular amastigotes of L. panamensis transfected with the green fluorescent protein gene (MHOM/CO/87/UA140-EGFP strain). Briefly, U-937 human cells at a density of 3 × 10^5 cells/mL in RPMI 1640 and 0.1 μg/mL of PMA (phorbol-12-myristate-13-acetate) were dispensed on 24-wells microplate and then infected with stationary phase growing L. panamensis promastigotes in 15:1 parasites per cell ratio. Plates were incubated at 34 °C and 5% CO2 for 3 h, and then cells were washed twice with phosphate buffer solution (PBS) to eliminate not internalized parasites. Fresh RPMI-1640 was added into each well (1 mL), and plates were incubated again. After 24 h of infection, the RPMI-1640 medium was replaced by fresh culture medium containing each compound at four serial dilutions (50, 12.5, 3.125 and 0.78 μg/mL) and plates were then incubated at 37 °C and 5% CO2 during 72 h, then, cells were removed from the bottom plate with 100 µL of EDTA/trypsin (250 mg) solution. The cells were centrifuged at 1100 rpm during 10 min at 4 °C, the supernatant was discarded, and cells were washed with 1 mL of cold PBS and centrifuged at 1100 rpm for 10 min at 4 °C. Cells were washed two times employing PBS, as previously, and after the last wash, the supernatant was discarded, and cells were suspended in 500 μL of PBS.
Cells were analyzed by flow cytometry employing a flow cytometer (FC 500MPL, Cytomics, Beckman Coulter. Pasadena, CA, USA) reading at 488 nm (exciting) and 525 nm (emitting) over an argon laser and counting 10,000 events. Infected cells were determined according to the events for green fluorescence (parasites). All determinations for each compound and standard drug were carried out by triplicate, in two experiments. Infected cells exposed to control drug (amphotericin B) were used as the control for antileishmanial activity (positive control), while infected cells incubated in the absence of any compound or drug were used as another control for infection (negative control). Nonspecific fluorescence was corrected by subtracting the fluorescence of unstained cells. Determinations were done by triplicate in at least two independent experiments.
The antileishmanial activity was determined according to the reduction of the percentage of fluorescent parasites determined according to the median fluorescence intensity (MFI) obtained for each experimental condition by cytometry. The parasite values for each concentration of compound were calculated by Equation (3), where the % of parasites in control well, corresponds to 100% of parasites:(3) % Parasites=(MFI exposed parasites/MFI unexposed parasites)×100
Then, the inhibition percentage was calculated with Equation (4):(4) % Inhibitors of Parasites=100−(% Parasites)
Results of antileishmanial activities were expressed as the median effective concentrations (EC50) measured by Probit method.

Setting [3] is: Leishmania panamensis, U-937, 72 h.

Take `O=C1CC(C(=O)O)Sc2ccccc21` (racemic) [Compound 20a, 4-Oxothiochromane-2-carboxylic acid]: the CC50 at 72 h in data set [1] turned out to be 133 ± 67.7 µM. In addition, the “SI (Selectivity Index = LC50/EC50)” value in data set [2] amounted to 0.3. The EC50 in data set [2] (setting [3]) amounted to 414 ± 58.5 µM.

Turning to `O=C1CC(C(=O)O)Sc2ccccc21` (stereo not drawn) [20a (+), 4-oxo-thiochroman-2-carboxylic acid], the CC50 at 72 h in data set [1] was more than 48.1 µM. Also, in data set [2], the “SI (Selectivity Index = LC50/EC50)” value is more than 0.1 and the EC50 was 505 ± 133 µM.

As to `C[C@@H]1[C@H](O)[C@@H](C)/C=C/C=C/C=C/C=C/C=C/C=C/C=C/[C@H](O[C@@H]2O[C@H](C)[C@@H](O)[C@H](N)[C@@H]2O)C[C@@H]2O[C@](O)(C[C@@H](O)C[C@@H](O)[C@H](O)CC[C@@H](O)C[C@@H](O)CC(=O)O[C@H]1C)C[C@H](O)[C@H]2C(=O)O` [Amphotericin B, reference compound], the CC50 at 72 h in data set [1] was 56.8 µM. Also, the half-maximal effective concentration (EC50) in data set [2] (setting [3]) turned out to be 0.05 µM.

In data set [1], `N#CC1=Cc2ccccc2SC1` [Compound 8a, 2H-Thiochromene-3-carbonitrile] came in with a CC50 at 72 h of 4 ± 0.6 µM. For the same compound, the “SI (Selectivity Index = LC50/EC50)” value in data set [2] was 0.7.

`COC(=O)C1=Cc2ccccc2SC1` [Compound 8b, Methyl 2H-thiochromene-3-carboxylate] came in with a CC50 at 72 h in data set [1] of 352 ± 47.5 µM. In addition, the “SI (Selectivity Index = LC50/EC50)” value in data set [2] is on record as 2.8. This compound registered an EC50 in data set [2] (setting [3]) of 126 ± 15.5 µM. For the same compound, in data set [2] (intracellular amastigotes of L. panamensis), the “antileishmanial activity (in words)” value was “practically inactive”.

In the case of `CC(=O)C1=Cc2ccccc2SC1c1ccccc1` (stereo not shown) [Compound 8c, 1-(2-Phenyl-2H-thiochromen-3-yl)ethan-1-one], in data set [1], the CC50 at 72 h came out at 6 ± 0.4 µM. Also, in data set [2], the “SI (Selectivity Index = LC50/EC50)” value is less than 2.3. This compound also had an EC50 in data set [2] (setting [3]) of more than 2.6 µM.

In turn, `CCCCCC1Sc2ccccc2C=C1C(C)=O` (stereo not shown) [Compound 8d, 1-(2-Pentyl-2H-thiochromen-3-yl)ethan-1-one] displayed a CC50 at 72 h in data set [1] of 25.7 ± 4.6 µM. Further, the “SI (Selectivity Index = LC50/EC50)” value in data set [2] is reported as 3.1.

As to `O=C(C1=Cc2ccccc2SC1c1ccccc1)C(F)(F)F` (stereo not shown) [Compound 8e], in data set [1], it took 21.2 ± 3.4 µM to reach half-maximal cytotoxicity (CC50 at 72 h). Further, in data set [2], the “SI (Selectivity Index = LC50/EC50)” value amounted to 0.7. Also, the EC50 in data set [2] (setting [3]) stood at 29.6 ± 6.2 µM.

In the case of `N#CC1CSc2ccccc2C1=O` (stereo not shown) [Compound 9a, 4-Oxo-thiochromane-3-carbonitrile], it took 770 ± 49.7 µM to reach half-maximal cytotoxicity in data set [1] (CC50 at 72 h). Moreover, in data set [2], the “SI (Selectivity Index = LC50/EC50)” value is 7.2. In data set [2] (setting [3]), this compound gave an EC50 of 108 ± 34.3 µM.

Regarding `COC(=O)C1CSc2ccccc2C1=O` (stereo not shown) [Compound 9b + 10b, Methyl 4-oxo-thiochromane-3-carboxylate], in data set [1], the midpoint of cytotoxicity, the CC50 at 72 h, lay at 485 ± 45.4 µM. In addition, in data set [2], the “SI (Selectivity Index = LC50/EC50)” value is 3.6. In data set [2] (setting [3]), this compound yielded an EC50 of 134 ± 27 µM.

In data set [1], `CCCCCC1Sc2ccccc2C(O)=C1C(C)=O` (stereo not shown) [Compound 10d, 1-(4-Hydroxy-2-pentyl-2H-thiochromen-3-yl)ethan-1-one] had a CC50 at 72 h of 51 ± 9 µM. For the same compound, in data set [2], the “SI (Selectivity Index = LC50/EC50)” value stood at 4.1 and it took 12.5 ± 3.3 µM to reach a half-maximal effect (EC50). The compound also showed an EC50 in data set [2] (setting [3]) of less than 20 µM.

Turning to `O=CC1=Cc2ccccc2SC1c1ccccc1` (stereo not shown) [Compound 13a, 2-Phenyl-2H-thiochromene-3-carbaldehyde], in data set [1], the CC50 at 72 h came out at 54.7 ± 3.2 µM. The “SI (Selectivity Index = LC50/EC50)” value in data set [2] was less than 2.3. The compound further showed an EC50 in data set [2] (setting [3]) of more than 23.8 µM.

For the compound `O=CC1=Cc2ccccc2SC1c1ccc(F)cc1` (stereo not shown) [Compound 13b, 2-(4-Fluorophenyl)-2H-thiochromene-3-carbaldehyde], half-maximal cytotoxicity in data set [1] (CC50 at 72 h) was put at 9.6 ± 0.4 µM. Also, in data set [2], the “SI (Selectivity Index = LC50/EC50)” value was determined as 0.3. In addition, in data set [2] (setting [3]), the EC50 stood at 29.7 ± 4.4 µM.

With `O=CC1=Cc2ccccc2SC1c1ccc(Cl)cc1` (stereo not shown) [Compound 13c, 2-(4-Chlorophenyl)-2H-thiochromene-3-carbaldehyde], in data set [1], the CC50 at 72 h was determined as 161 ± 27.9 µM. Moreover, the “SI (Selectivity Index = LC50/EC50)” value in data set [2] turned out to be 4.3. In data set [2] (setting [3]), this compound registered an EC50 of 37 ± 5.6 µM.

For the compound `O=CC1=Cc2ccccc2SC1c1ccccc1[N+](=O)[O-]` (stereo not shown) [Compound 13d, 2-(2-Nitrophenyl)-2H-thiochromene-3-carbaldehyde], in data set [1], the CC50 at 72 h came to 23.9 ± 2.4 µM. Moreover, the “SI (Selectivity Index = LC50/EC50)” value in data set [2] is on record as 2.6.
